Results on nine compounds are retold here after PubChem BioAssay (NCI).

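The compound was tested at five concentrations on cells cultured in 96-well plates, with a 48-hour exposure period. GI50 = concentration required for 50% inhibition of growth. TGI denotes the concentration required for complete inhibition of growth.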

Assay in all cases: inhibition of tumour cell growth, NCI panel, 48 h
Assay [1] relates to EKVX NSCLC.
For assay [2], the system named is SF-295 CNS.
In assay [3] the test system is UO-31 renal.
Assay [4] relates to A549 NSCLC.
Assay [5] relates to SK-MEL-2 melanoma.
In assay [6] the test system is KM12 colon.
Assay [7] deals with MDA-MB-435.
The test system of assay [8] is CAKI-1 renal.

With `COC(=O)[C@]12CC[C@@H](C)[C@H](C)[C@@H]1C1=CC[C@@H]3[C@@]4(C)C=C(O)C(=O)[C@@]5(C)COC(=C54)C[C@@]3(C)[C@]1(C)CC2`, the GI50 is 8.37 µM in assay [1]; 13 µM in assay [2]; 10.1 µM in assay [3]; 8.36 µM in assay [4]; 13.1 µM in assay [5]; 11.9 µM in assay [6]. Further, the GI50 in assay [7] is 6.12 µM; in assay [8], 9.36 µM. Moreover, the TGI in assay [1] stood at 26.5 µM; in assay [2] it was 28.7 µM; in assay [3], 24.4 µM; in assay [4], 26 µM; in assay [5], 29.6 µM; in assay [6], 29.4 µM. Also, the figures for the TGI in assay [7] and in assay [8] were 21.5 µM and 26.7 µM, respectively.
For `COc1ccc(Cl)cc1NC(=O)C(Br)C(Br)C(=O)O` (stereo not drawn), the GI50 in assay [1] was 21.9 µM; in assay [2], 38.9 µM; in assay [3], 19.2 µM; in assay [4], more than 74.3 µM; in assay [5], 7.54 µM; in assay [6], 16.3 µM. Moreover, the GI50 was 4.27 µM in assay [7] and 16.7 µM in assay [8]. Also, the TGI in assay [1] was more than 100 µM; in assay [2], more than 100 µM; in assay [3], 43.6 µM; in assay [4] it was more than 100 µM; in assay [5], 26.2 µM; in assay [6], 39.2 µM. Moreover, the TGI in assay [7] was 20.7 µM; in assay [8] it was 49.1 µM.
For the compound `CO[C@@H]1/C=C(C)/C=C/[C@@H](C)/C=C(\C)C(=O)OC(/C(C)=C/C=C(\C)CNC(=O)[C@H](CO)NC=O)[C@@H](C)/C=C/C=C/[C@H](OC)CC/C=C(C)/C=C/C1` (stereo partly drawn), the GI50 in assay [1] was 5.56 µM; in assay [2] it was less than 0.005 µM; in assay [3], less than 0.005 µM; in assay [4] it was 0.00881 µM; in assay [5], less than 0.005 µM; in assay [6], less than 0.005 µM. The GI50 in assay [7] and in assay [8] was less than 0.005 µM throughout. The TGI is 15.6 µM in assay [1]; 0.00951 µM in assay [2]; 0.425 µM in assay [3]; 0.0242 µM in assay [4]; 8 µM in assay [6]; less than 0.005 µM in assay [7]. In assay [8], this compound came in with a TGI of 0.592 µM.
Turning to `O=C(c1ccco1)c1c(C(F)(F)F)n([O-])c2ccccc2[n+]1=O`, the GI50 in assay [1] is 0.226 µM; in assay [2], 1.32 µM; in assay [3], 0.755 µM; in assay [4], 3.18 µM; in assay [5], 1.48 µM; in assay [6], 0.911 µM. The results for the GI50 in assay [7] and in assay [8] were 1.85 µM and 1.13 µM, respectively. Moreover, the TGI came to 0.741 µM in assay [1]; 7.69 µM in assay [2]; 2.03 µM in assay [3]; 27.7 µM in assay [4]; 6.19 µM in assay [5]; 8.18 µM in assay [6]. Besides, the values for the TGI in assay [7] and in assay [8] were 17.5 µM and 3.94 µM, respectively.
In the case of `Cc1cc(Cc2cc(C)cc(C(C)(C)C)c2O)c(O)c(C(C)(C)C)c1`, the GI50 was 2.81 µM in assay [1]; 2.54 µM in assay [2]; 4.58 µM in assay [3]; 3.86 µM in assay [4]; 15.1 µM in assay [5]; 3.79 µM in assay [6]. Further, the GI50 in assay [7] was 7.82 µM; in assay [8], 2.36 µM. Moreover, the TGI worked out at 12.1 µM in assay [1]; 6.23 µM in assay [2]; 19 µM in assay [3]; 13.2 µM in assay [4]; 33.6 µM in assay [5]; 13.6 µM in assay [6]. Also, the TGI in assay [7] was found to be 22.2 µM; in assay [8] it was 8.03 µM.
On to `CN(C)C(=O)c1cc2cnc(Nc3ccc(-c4csc5c(=O)cc(N6CCOCC6)oc45)cc3)nc2n1C1CCCC1`, for which the GI50 is 0.214 µM in assay [1]; 0.242 µM in assay [2]; 0.0537 µM in assay [3]; 0.213 µM in assay [4]; 0.236 µM in assay [5]; 0.0414 µM in assay [6]. Moreover, the figures for the GI50 in assay [7] and in assay [8] were 0.196 µM and 0.152 µM, respectively. In addition, the TGI in assay [1] was 1.98 µM; in assay [2] it was 1.14 µM; in assay [3] it was 0.287 µM; in assay [4] it was more than 100 µM; in assay [5], 0.679 µM; in assay [6] it was 0.682 µM. Also, the values for the TGI in assay [7] and in assay [8] were 1.89 µM and 1.15 µM, respectively.
Take `C=C1C(=O)O[C@H]2[C@H]1CC/C(COC(=O)CSCC(=O)OC/C1=C/CC[C@@]3(C)O[C@H]3[C@H]3OC(=O)C(=C)[C@@H]3CC1)=C\CC[C@@]1(C)O[C@@H]21`: the GI50 in assay [1] is 1.82 µM; in assay [2], 10.2 µM; in assay [3] it was 1.44 µM; in assay [4], 5 µM; in assay [5], 2.12 µM; in assay [6], 2.59 µM. Besides, the GI50 in assay [7] is 1.69 µM; in assay [8] it was 1.57 µM. In addition, the TGI in assay [1] came out at 4.12 µM; in assay [2], 26.2 µM; in assay [3] it was 2.83 µM; in assay [4], 18.2 µM; in assay [5], 5.62 µM; in assay [6] it was 8.75 µM. Besides, the TGI in assay [7] came out at 3.92 µM; in assay [8] it was 3 µM.
Take `C=CCC1(O)c2cccc(NCCO)c2C(=O)c2c(NCCO)cccc21`: the GI50 in assay [1] is more than 100 µM; in assay [2], more than 100 µM; in assay [3] it was 95.7 µM; in assay [4], more than 100 µM; in assay [5] it was more than 100 µM; in assay [6], more than 100 µM. Moreover, the GI50 in assay [7] and in assay [8] was more than 100 µM in each case. Further, the TGI in assay [1], in assay [2], in assay [3], in assay [4], in assay [5] and in assay [6] was more than 100 µM each time. Also, the TGI in assay [7] and in assay [8] was more than 100 µM in each case.
Turning to `COc1ccccc1/C=N\N=C(N/N=C/c1ccccc1OC)N/N=C/c1ccccc1OC`, the GI50 in assay [1] is 2.68 µM; in assay [2], 2.03 µM; in assay [3] it was 1.81 µM; in assay [4], 3.6 µM; in assay [5], 5.51 µM; in assay [6], 2.96 µM. Moreover, the GI50 in assay [7] was 2.36 µM; in assay [8], 2.08 µM. For the same compound, the TGI in assay [1] was more than 100 µM; in assay [2], 5.11 µM; in assay [3], 7.25 µM; in assay [4] it was more than 100 µM; in assay [5] it was more than 100 µM; in assay [6], 16.2 µM. Moreover, the TGI in assay [7] came out at 6.49 µM; in assay [8] it was 6.19 µM.
